Columns and labels:
Format in all cases: ADME, organism-based
[1] = Half life in HIV-infected patient at 300 mg, qd co-administered with 100 mg minocycline, bid for 15 days; settings: human, in vivo
[2] = AUC (0 to 24 hrs) in HIV-infected patient at 300 mg, qd co-administered with 100 mg minocycline and 250 mg valporic acid, bid for 15 days; set-up: time < 24 hr, dose 300 mg; settings: human, plasma
[3] = Half life in HIV-infected patient at 300 mg, qd; settings: human, in vivo
[4] = Cmax in HIV-infected patient at 300 mg, qd co-administered with 100 mg minocycline and 250 mg valporic acid, bid for 15 days; set-up: dose 300 mg; settings: human, in vivo
[5] = Half life in HIV-infected patient at 300 mg, qd co-administered with 100 mg minocycline and 250 mg valporic acid, bid for 15 days; settings: human, in vivo
[6] = Cmax in HIV-infected patient at 300 mg, qd co-administered with 100 mg minocycline, bid for 15 days; set-up: dose 300 mg; settings: human, in vivo
[7] = AUC (0 to 24 hrs) in HIV-infected patient at 300 mg, qd co-administered with 100 mg minocycline, bid for 15 days; set-up: dose 300 mg, time < 24 hr; settings: human, plasma
[8] = Cmax in HIV-infected patient at 300 mg, qd; set-up: dose 300 mg; settings: human, in vivo
[9] = AUC (0 to 24 hrs) in HIV-infected patient at 300 mg, qd; set-up: time < 24 hr, dose 300 mg; settings: human, plasma
[10] = Half life in HIV-infected patient at 100 mg, qd co-administered with 100 mg minocycline, bid for 15 days; settings: human, in vivo
[11] = AUC (0 to 24 hrs) in HIV-infected patient at 100 mg, qd; set-up: dose 100 mg, time < 24 hr; settings: human, plasma
[12] = Half life in HIV-infected patient at 100 mg, qd; settings: human, in vivo
[13] = Half life in HIV-infected patient at 100 mg, qd co-administered with 100 mg minocycline and 250 mg valporic acid, bid for 15 days; settings: human, in vivo
[14] = AUC (0 to 24 hrs) in HIV-infected patient at 100 mg, qd co-administered with 100 mg minocycline and 250 mg valporic acid, bid for 15 days; set-up: dose 100 mg, time < 24 hr; settings: human, plasma
[15] = Cmax in HIV-infected patient at 100 mg, qd co-administered with 100 mg minocycline, bid for 15 days; set-up: dose 100 mg; settings: human, in vivo
[16] = Cmax in HIV-infected patient at 100 mg, qd; set-up: dose 100 mg; settings: human, in vivo
[17] = Cmax in HIV-infected patient at 100 mg, qd co-administered with 100 mg minocycline and 250 mg valporic acid, bid for 15 days; set-up: dose 100 mg; settings: human, in vivo
[18] = AUC (0 to 24 hrs) in HIV-infected patient at 100 mg, qd co-administered with 100 mg minocycline, bid for 15 days; set-up: time < 24 hr, dose 100 mg; settings: human, plasma

half-life [1] [h] | AUC at 24 h [2] [ng·h/mL] | half-life [3] [h] | Cmax [4] [ng/mL] | half-life [5] [h] | Cmax [6] [ng/mL] | AUC at 24 h [7] [ng·h/mL] | Cmax [8] [ng/mL] | AUC at 24 h [9] [ng·h/mL] | half-life [10] [h] | AUC at 24 h [11] [ng·h/mL] | half-life [12] [h] | half-life [13] [h] | AUC at 24 h [14] [ng·h/mL] | Cmax [15] [ng/mL] | Cmax [16] [ng/mL] | Cmax [17] [ng/mL] | AUC at 24 h [18] [ng·h/mL] | Compound
7.93 | 33500 | 11 | 2600 | 10.4 | 3400 | 33100 | 5130 | 53500 |  |  |  |  |  |  |  |  |  | COC(=O)N[C@H](C(=O)N[C@@H](Cc1ccccc1)[C@@H](O)CN(Cc1ccc(-c2ccccn2)cc1)NC(=O)[C@@H](NC(=O)OC)C(C)(C)C)C(C)(C)C [ATAZANAVIR]
 |  |  |  |  |  |  |  |  | 6.64 | 9600 | 5.4 | 4.4 | 7270 | 990 | 957 | 884 | 8190 | CC(C)c1nc(CN(C)C(=O)N[C@H](C(=O)N[C@@H](Cc2ccccc2)C[C@H](O)[C@H](Cc2ccccc2)NC(=O)OCc2cncs2)C(C)C)cs1 [RITONAVIR]
